The test has as its system MELOE-1 specific CD4 T cell clones. In words: Recognition of autologous DC loaded with antigen by CD4 T cell clones (TNF-α). In kind it is cell-based, human. On the procedure: FIG. 4: Class II epitopes are naturally processed from MELOE-1 whole antigen. Autologous DC, were loaded (before or after fixation) with MELOE-12-46 (1 μM) or, as a negative control, with Melan-A16-40L peptide (1 μM), and matured. T cell clones were then stimulated with DC at a ratio 1:1, during 5 h in presence of Brefeldin A, then stained with APC-conjugated anti-CD3 mAb, fixed with 4% paraformaldehyde, labeled with PE-conjugated anti-TNF-α mAb and analyzed by flow cytometry. Histograms illustrated the % of TNF-α producing cells among CD3 positive T cells.
Dendritic Cells Generation and Loading Monocytes were purified from PBMC of healthy donors by a CD14-enrichment kit, according the recommendations of the supplier (Stem Cell, France). Immature dendritic cells (iDC) were generated by culturing monocytes in RPMI supplemented with 20 mg/mL of human albumin, 1000 IU/mL of GM-CSF and 200 IU/mL of IL-4 for 5 days. Then, iDC were pulsed with the whole MELOE-1 (1 μM) protein or the modified Melan-A16-40 A27L as negative control (1 μM) and matured with 20 ng/mL of TNF-α and 50 μg/mL of PolyI:C for 4 hours at 37° C. Finally they were fixed for 1 minute with PBS/0.015% glutaraldehyde. Alternatively, iDC were first matured, fixed and then pulsed with antigens at the same concentration. […]

With “MSCVGYPDEATSREQFLPSEGAACPPWHPSERISSTLNDECWPASL [MELOE-1]”, the “recognition by specific CD4 T cell clones of loaded autologous DC” value (DC loaded after DC fixation) was “only a weak recognition”. Further, the “reactivity of the four CD4 T cell clones against loaded autologous DC” value (iDC loaded with 1 μM in serum-free medium, matured, then fixed) is listed as “reactive”.

For the origin of these results see patent US9573975B2, “Melanoma antigen peptide and uses thereof” (INSERM (INSTITUT NATIONAL DE LA SANTE ET DE LA RECHERCHE …, priority 2012, dated 2017).
